Read-outs that look alike come from different tables or passages of the source.
Legend:
Type in all cases: in vivo
Pyricularia oryzae [1] = test: whole plant or invertebrate
Pyricularia oryzae [2] = test system: Pyricularia oryzae
Rhizoctonia solani [3] = test: Test Example 4: control test on paddy rice sheath blight, spraying
Procedure: A compound solution of a prescribed concentration was sprayed on three 1/5000a rice pots (cultivar: Koshihikari; 4 leaf stage). After one day from the spraying, Rhizoctonia solani cultured on a rice chaff/bran medium was inoculated on the basal of the rice plant. After 10 days from the inoculation, the extended lesion length of sheath blight of the whole stem was examined. The control value was calculated according to the following equation (3 replications).
(§1) Control Value=(1−average lesion length per a stem in the treated plot/average lesion length per a stem in the untreated plot)×100

Pyricularia oryzae [4] = settings: rice blast, nursery box application of granule
Rhizoctonia solani [5] = test: Test Example 5: control test on paddy rice sheath blight, submerged application; settings: submerged application of granule
Procedure: (§2) After 14 days from the treatment, Rhizoctonia solani cultured on a rice chaff/bran medium was inoculated on the basal of the rice plant. After 10 days from the inoculation, the extended lesion length of sheath blight of the whole stem was examined. The control value was calculated according to the following equation (3 replications).
as §1

Pyricularia oryzae [6] = test system: Pyricularia oryzae; remark: listed apart in the source
Rhizoctonia solani [7] = test: Test Example 6: control test on paddy rice sheath blight, nursery box application; settings: nursery box application of granule
Procedure: as §2, with “30” for “14”
as §1

[8] = Pyricularia oryzae, 168 h, read-out: Control value
[9] = rice blast, sprayed at 60 ppm active ingredient, lesions after 7 days

SMILES: O=C1OCc2c(Cl)c(Cl)c(Cl)c(Cl)c21 [Fthalide, reference compound]
- pest or weed control at 300 ppm (Pyricularia oryzae [1]; [8]): 97%

SMILES: CC(=O)Oc1c(C)c(C)nc2c(F)cc(C(C)(C)C)cc12 [Compound 105, reference compound]
- pest or weed control at 300 ppm (Pyricularia oryzae [1]; [8]): 98%

SMILES: Cc1ccc(C(=O)NCC(NC(=O)OCCBr)C(C)C)cc1 (stereo not drawn) [Compound 4]
- Effect (class of control value) (Pyricularia oryzae [2]; in vivo): A (key: A: Not less than 80%; B: Not less than 50% to less than 80%; C: Less than 50%)

SMILES: O=C(Nc1ccccc1)N(Cc1ccc(Cl)cc1)C1CCCC1 [Pencycuron, reference compound]
- Control value (Rhizoctonia solani [3]; 167 ppm): 95

SMILES: N#Cc1ccccc1NC(=O)c1snc(Cl)c1Cl [Compound 104]
- Control value (Pyricularia oryzae [4]; 1.5 gai/box): 98

SMILES: CNC(=O)/C(=N/OC)c1ccccc1Oc1ccccc1 [Metominostrobin, reference compound]
- Control value (Rhizoctonia solani [5]; 150 gai/10a): 95
- Control value (Pyricularia oryzae [6]; rice blast, submerged application of granule, 150 gai/10a): 98

SMILES: CO/C=C(/C(=O)OC)c1ccccc1Oc1cc(Oc2ccccc2C#N)ncn1 [Azoxystrobin, reference compound]
- Control value (Rhizoctonia solani [3]; 80 ppm): 93

SMILES: CC(C)OC(=O)C(C(=O)OC(C)C)=C1SCCS1 [Isoprothiolane, reference compound]
- pest or weed control at 400 ppm (Pyricularia oryzae [1]; [8]): 98%

SMILES: C=CCOC1=NS(=O)(=O)c2ccccc21 [Probenazole]
- Control value (Pyricularia oryzae [4]; 12 gai/box): 98

SMILES: Cc1nc(C(F)(F)F)c(C(=O)Nc2c(Br)cc(OC(F)(F)F)cc2Br)s1 [Thifluzamide, reference compound]
- Control value (Rhizoctonia solani [5]; 60 gai/10a): 95
- Control value (Rhizoctonia solani [7]; 1 gai/box): 95

SMILES: Cc1ccc(C(=O)NCC(NC(=O)OCC(F)(F)F)C2CCCC2)cc1 (stereo not drawn) [Compound 36]
- Effect (class of control value) (Pyricularia oryzae [2]; in vivo): A (key: A: Not less than 80%; B: Not less than 50% to less than 80%; C: Less than 50%)

SMILES: C/C(=N/Nc1nc(C)cc(C)n1)c1ccccc1C [Ferimzone, reference compound]
- pest or weed control at 300 ppm (Pyricularia oryzae [1]; [8]): 98%

SMILES: Cc1ccc(C(=O)NCC(NC(=O)OCC(F)(F)F)C(C)(C)C)cc1 (stereo not drawn) [Compound 24]
- Control value (Rhizoctonia solani [5]; 225 gai/10a): 4
- Effect (class of control value) (Pyricularia oryzae [2]; in vivo): A (key: A: Not less than 80%; B: Not less than 50% to less than 80%; C: Less than 50%)
- Control value (Pyricularia oryzae [1]; 60 ppm): 97
- Control value (Rhizoctonia solani [7]; 7.5 gai/box): 4
- Control value (Rhizoctonia solani [3]; 60 ppm): 2

SMILES: CC(C)(C)C(CNC(=O)c1cc2ccccc2o1)NC(=O)OCC(F)(F)F (stereo not drawn) [Compound 31]
- Control value (Rhizoctonia solani [5]; 225 gai/10a): 4
- Effect (class of control value) (Pyricularia oryzae [2]; in vivo): A (key: A: Not less than 80%; B: Not less than 50% to less than 80%; C: Less than 50%)
- Control value (Pyricularia oryzae [1]; 60 ppm): 96
- Control value (Rhizoctonia solani [7]; 7.5 gai/box): 2
- Control value (Rhizoctonia solani [3]; 60 ppm): 4

SMILES: Cc1ccc(C(=O)NCC(NC(=O)OC(CBr)CBr)C(C)C)cc1 (stereo not drawn) [Compound 11]
- Effect (class of control value) (Pyricularia oryzae [2]; in vivo): B (key: A: Not less than 80%; B: Not less than 50% to less than 80%; C: Less than 50%)

SMILES: Cc1ccc(C(=O)NCC(NC(=O)OCCCl)C(C)C)cc1 (stereo not drawn) [Compound 3]
- Effect (class of control value) (Pyricularia oryzae [2]; in vivo): A (key: A: Not less than 80%; B: Not less than 50% to less than 80%; C: Less than 50%)

SMILES: CCC(C)C(CNC(=O)c1ccc(C)cc1)NC(=O)OCC(F)(F)F (stereo not drawn) [Compound 25]
- Control value (Rhizoctonia solani [5]; 225 gai/10a): 5
- Control value (Pyricularia oryzae [6]; in vivo): 95
- Effect (class of control value) (Pyricularia oryzae [2]; in vivo): A (key: A: Not less than 80%; B: Not less than 50% to less than 80%; C: Less than 50%)

SMILES: CSC(=O)c1cccc2nnsc12 [Acibenzolar-S-methyl]
- Control value (Pyricularia oryzae [4]; 1 gai/box): 96

SMILES: Cc1ccc(C(=O)NC(CNC(=O)OCC(Cl)(Cl)Cl)C(C)C)cc1 (stereo not drawn) [Compound 7, N-(2,2,2-trichloroethyloxycarbonyl)-N′-(4-methylbenzoyl)-3-methyl-1,2-butanediamine]
- Effect (class of control value) (Pyricularia oryzae [2]; [9]): A (Not less than 80%)

SMILES: Cc1ccc(C(=O)NC(CNC(=O)OC(C(F)(F)F)C(F)(F)F)C(C)C)cc1 (stereo not drawn) [Compound 8, N-(1,1,1,3,3,3-hexafluoro-2-propyloxycarbonyl)-N′-(4-methylbenzoyl)-3-methyl-1,2-butanediamine]
- Effect (class of control value) (Pyricularia oryzae [2]; [9]): A (Not less than 80%)

SMILES: Cc1c(Cl)cc(-c2ccc(=O)[nH]n2)cc1Cl [Diclomezine, reference compound]
- Control value (Rhizoctonia solani [3]; 20 ppm): 95

SMILES: Cc1ccc(C(=O)NCC(NC(=O)OCCI)C(C)C)cc1 (stereo not drawn) [Compound 5]
- Effect (class of control value) (Pyricularia oryzae [2]; in vivo): A (key: A: Not less than 80%; B: Not less than 50% to less than 80%; C: Less than 50%)

SMILES: C[C@H]1O[C@H](O[C@H]2[C@H](O)[C@@H](O)[C@@H](O)[C@H](O)[C@@H]2O)[C@@H](N)C[C@@H]1NC(=N)C(=O)O [Kasugamycin, reference compound]
- Control value (Pyricularia oryzae [1]; rice blast, spraying, 20 ppm): 97

SMILES: Cc1ccc(C(=O)NCC(NC(=O)OCCC(F)(F)C(F)(F)C(F)(F)C(F)(F)F)C(C)C)cc1 (stereo not drawn) [Compound 14]
- Effect (class of control value) (Pyricularia oryzae [2]; in vivo): B (key: A: Not less than 80%; B: Not less than 50% to less than 80%; C: Less than 50%)

SMILES: Cc1ccc(C(=O)NCC(NC(=O)OCCF)C(C)C)cc1 (stereo not drawn) [Compound 2]
- Effect (class of control value) (Pyricularia oryzae [2]; in vivo): A (key: A: Not less than 80%; B: Not less than 50% to less than 80%; C: Less than 50%)

SMILES: CC(CNC(=O)c1cc2ccccc2o1)NC(=O)OCC(F)(F)F (stereo not drawn) [Compound 40]
- Effect (class of control value) (Pyricularia oryzae [2]; in vivo): A (key: A: Not less than 80%; B: Not less than 50% to less than 80%; C: Less than 50%)
- Control value (Pyricularia oryzae [1]; 60 ppm): 97
- Control value (Rhizoctonia solani [3]; 60 ppm): 4

SMILES: CC(C)C(CNC(=O)c1nc2ccccc2s1)NC(=O)OCC(F)(F)F (stereo not drawn) [Compound 38]
- Effect (class of control value) (Pyricularia oryzae [2]; in vivo): A (key: A: Not less than 80%; B: Not less than 50% to less than 80%; C: Less than 50%)
- Control value (Pyricularia oryzae [1]; 60 ppm): 96
- Control value (Rhizoctonia solani [3]; 60 ppm): 3

SMILES: Cc1ccc(C(=O)NCC(NC(=O)OC(CF)CF)C(C)C)cc1 (stereo not drawn) [Compound 9]
- Effect (class of control value) (Pyricularia oryzae [2]; in vivo): A (key: A: Not less than 80%; B: Not less than 50% to less than 80%; C: Less than 50%)

SMILES: Cc1ccc(C(=O)NCC(NC(=O)OC(C)C(F)(F)F)C(C)C)cc1 (stereo not drawn) [Compound 30]
- Control value (Rhizoctonia solani [5]; 225 gai/10a): 7
- Control value (Pyricularia oryzae [6]; in vivo): 97
- Effect (class of control value) (Pyricularia oryzae [2]; in vivo): A (key: A: Not less than 80%; B: Not less than 50% to less than 80%; C: Less than 50%)

SMILES: Cc1nn(C)c(Cl)c1C(=O)Nc1cccc2c1C(C)OC2(C)C (stereo not drawn) [Furametpyr, reference compound]
- Control value (Rhizoctonia solani [5]; 45 gai/10a): 96
- Control value (Rhizoctonia solani [7]; 2 gai/box): 96
- Control value (Rhizoctonia solani [3]; 100 ppm): 95

SMILES: CCC(CC)C(CNC(=O)c1ccc(C)cc1)NC(=O)OCC(F)(F)F (stereo not drawn) [Compound 39]
- Effect (class of control value) (Pyricularia oryzae [2]; in vivo): A (key: A: Not less than 80%; B: Not less than 50% to less than 80%; C: Less than 50%)

SMILES: CC(C)CC(C)c1sccc1NC(=O)c1cn(C)nc1C(F)(F)F (racemic) [Penthiopyrad, (RS)—N-[2-(1,3-dimethylbutyl)thiophene-3-yl]-1-methyl-3-trifluoromethyl-1H-pirazole-4-carboxamide, reference compound]
- pest or weed control at 200 ppm (Pyricularia oryzae [1]; [8]): 95%

SMILES: Cc1ccccc1C(=O)Nc1cccc(OC(C)C)c1 [Mepronil, reference compound]
- Control value (Rhizoctonia solani [3]; 750 ppm): 94

SMILES: CC(C)Oc1cccc(NC(=O)c2ccccc2C(F)(F)F)c1 [Flutolanil, reference compound]
- Control value (Rhizoctonia solani [5]; 210 gai/10a): 96
- Control value (Rhizoctonia solani [3]; 250 ppm): 94

SMILES: Cc1ccc(C(=O)NCC(NC(=O)OC2CCCCC2F)C(C)C)cc1 (stereo not drawn) [Compound 16]
- Effect (class of control value) (Pyricularia oryzae [2]; in vivo): A (key: A: Not less than 80%; B: Not less than 50% to less than 80%; C: Less than 50%)

SMILES: Cc1ccc(C(=O)NCC(NC(=O)OCC(F)(F)C(F)(F)C(F)(F)F)C(C)C)cc1 (stereo not drawn) [Compound 13]
- Effect (class of control value) (Pyricularia oryzae [2]; in vivo): A (key: A: Not less than 80%; B: Not less than 50% to less than 80%; C: Less than 50%)

SMILES: CC(C)C(CNC(=O)c1nc2ccc(F)cc2s1)NC(=O)OCC(F)(F)F (stereo not drawn) [Compound 37]
- Effect (class of control value) (Pyricularia oryzae [2]; in vivo): A (key: A: Not less than 80%; B: Not less than 50% to less than 80%; C: Less than 50%)
- Control value (Pyricularia oryzae [1]; 60 ppm): 98
- Control value (Rhizoctonia solani [3]; 60 ppm): 3

SMILES: OCC1=C[C@H](N[C@H]2C[C@H](CO)[C@@H](O[C@@H]3O[C@H](CO)[C@@H](O)[C@H](O)[C@H]3O)[C@H](O)[C@H]2O)[C@H](O)[C@@H](O)[C@@H]1O [Validamycin, reference compound]
- Control value (Rhizoctonia solani [3]; 60 ppm): 94

SMILES: CSCC(C)OC(=O)NC(CNC(=O)c1ccc(C)cc1)C(C)C (stereo not drawn) [Formula (17), reference compound]
- Effect (class of control value) (Pyricularia oryzae [2]; [9]): C (Less than 50%)

SMILES: C[C@@H](NC(=O)C(C#N)C(C)(C)C)c1ccc(Cl)cc1Cl (stereo partly drawn) [Diclocymet]
- Control value (Pyricularia oryzae [4]; 1.5 gai/box): 97

SMILES: Cc1cccc2sc3nncn3c12 [Tricyclazole, reference compound]
- Control value (Pyricularia oryzae [4]; 2 gai/box): 96
- pest or weed control at 200 ppm (Pyricularia oryzae [1]; [8]): 99%

SMILES: Cc1ccc(C(=O)NCC(NC(=O)Oc2ccc3ccccc3c2)C(C)C)cc1 (stereo not drawn) [Formula (16), reference compound]
- Effect (class of control value) (Pyricularia oryzae [2]; [9]): C (Less than 50%)

SMILES: CCOP(=O)(Sc1ccccc1)Sc1ccccc1 [EDDP, reference compound]
- Control value (Pyricularia oryzae [1]; 300 ppm): 97

SMILES: Cc1ccc(C(=O)NCC(NC(=O)OCCCCl)C(C)C)cc1 (stereo not drawn) [Compound 10]
- Effect (class of control value) (Pyricularia oryzae [2]; in vivo): A (key: A: Not less than 80%; B: Not less than 50% to less than 80%; C: Less than 50%)

SMILES: Cc1ccc(NC(=O)c2snnc2C)cc1Cl [Tiadinil]
- Control value (Pyricularia oryzae [4]; 6 gai/box): 95
